Data taken from article PMC7091509 (Biophysical Journal, 2020).
“Also recorded” adds a separate entry of the source.

Columns and labels:
[1] = tested on: first vinculin head domain (Vd1); assay: AFM single-molecule force spectroscopy; assay type: binding; settings: for relative mechanical stability of Vd1-VBS complex / ratio of unfolding to direct unbinding (UF/UB): shear-like pulling; for relative mechanical stability of Vd1-VBS complex: AFM experiments and simulations; for ratio of unfolding to direct unbinding (UF/UB): derived from AFM experiments
vinculin = settings: cited from earlier work
[2] = target: first vinculin head domain Vd1 (aa 1-258), SII-Vd1-ybbR (UniProt P18206); assay: AFM single-molecule force spectroscopy
Sequence of first vinculin head domain Vd1 (aa 1-258), SII-Vd1-ybbR (P18206 1-258): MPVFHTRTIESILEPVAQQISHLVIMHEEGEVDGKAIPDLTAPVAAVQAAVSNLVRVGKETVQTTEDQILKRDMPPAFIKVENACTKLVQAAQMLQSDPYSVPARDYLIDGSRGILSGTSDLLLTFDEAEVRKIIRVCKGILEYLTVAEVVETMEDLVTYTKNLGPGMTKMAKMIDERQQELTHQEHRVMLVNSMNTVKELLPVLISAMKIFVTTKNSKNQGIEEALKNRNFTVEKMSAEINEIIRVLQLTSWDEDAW

[3] = C-terminal pulling, bimodal distribution, 800 nm/s

## ILEAAKSIAAATSALVKAASAAQRE [Talin VBS58]
[1]
  relative mechanical stability of Vd1-VBS complex: least stable complex; also recorded: low mechanical stability
  ratio of unfolding to direct unbinding (UF/UB): ≈ 0.4
vinculin
  interaction in SPOT-peptide assay: strong interaction

## talin VBS58 peptide with C-terminal cysteine (GSGS-VBS-GSGS-C) (from UniProt Q9Y490 2345-2369)
[2]
  UF/UB (ratio of unfolding to direct unbinding): 0.4
  mean rupture force: 45 to 60 pN

## GEMVGQARILAQATSDLVNAIKDA [Talin VBS11]
[1]; C-terminal (shear-like) pulling, 800 nm/s
  direct unbinding in experiment: almost no direct unbinding
[1]; [3]
  rupture force of high-force population: > 60 pN
  rupture force of low-force population: < 60 pN
[1]; N-terminal pulling, 800 nm/s
  high-force population: disappeared
[1]; shear-like pulling (C-terminal; N-terminal for α-actinin), 800 nm/s
  unfolding pattern in AFM traces: shows a population of high-force traces with multiple unfolding peaks
[1]
  relative mechanical stability of Vd1-VBS complex: formed the most stable complex
  ratio of unfolding to direct unbinding (UF/UB): ≈ 2

## talin VBS58 peptide with N-terminal cysteine (C-GSGS-VBS-GSGS) (from UniProt Q9Y490 2345-2369)
[2]
  UF/UB (ratio of unfolding to direct unbinding): 0

## talin VBS11 peptide with C-terminal cysteine (GSGS-VBS-GSGS-C) (from UniProt Q9Y490 820-843)
[2]
  UF/UB (ratio of unfolding to direct unbinding): 2
  rupture force, high-force population: > 60 pN
  rupture force, low-force population: < 60 pN

## talin VBS11 peptide with N-terminal cysteine (C-GSGS-VBS-GSGS) (from UniProt Q9Y490 820-843)
[2]
  UF/UB (ratio of unfolding to direct unbinding): 0
